Laboratory results as given in US8389552B2, “(S)-6-(2-(4-(cyclobutylsulfonyl)-1H-imidazol-1-yl)-3-cyclopentylpropanamido)nicotinic acid useful as a glucokinase activator” (Pfizer Inc., priority 2009, dated 2013).
Like-named read-outs stand apart in the source and are kept apart here.

Target: T1, Full-length glucokinase (beta cell isoform) (Homo sapiens, UniProt P35557)
T1 construct: Full-length glucokinase (beta cell isoform) was His-tagged at N-terminus; His tag (N); made in house; host or cells: E. coli BL21(DE3), pBCGK vector
T1 sequence (P35557 1-465): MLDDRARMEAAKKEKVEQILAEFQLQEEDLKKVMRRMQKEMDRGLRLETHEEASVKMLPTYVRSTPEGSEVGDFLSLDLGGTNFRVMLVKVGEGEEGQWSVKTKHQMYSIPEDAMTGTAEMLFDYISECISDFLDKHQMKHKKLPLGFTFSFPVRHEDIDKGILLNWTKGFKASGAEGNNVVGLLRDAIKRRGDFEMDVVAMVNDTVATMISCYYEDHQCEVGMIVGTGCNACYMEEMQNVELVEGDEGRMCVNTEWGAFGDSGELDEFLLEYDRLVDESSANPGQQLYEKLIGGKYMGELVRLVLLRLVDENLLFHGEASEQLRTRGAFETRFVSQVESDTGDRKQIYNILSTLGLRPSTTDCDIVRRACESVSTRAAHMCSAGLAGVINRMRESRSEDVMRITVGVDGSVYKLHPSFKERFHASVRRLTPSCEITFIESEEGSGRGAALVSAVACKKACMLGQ
Test: Glucokinase activation assay (PK/LDH-coupled, NADH depletion at 340 nm)
Format: biochemical
Settings: for Emax: % max activation = (Va/Vo−1)×100 from fit, pH 7.1, read-out: Maximum Activation (%)
Description: Full-length glucokinase (beta cell isoform) was His-tagged at N-terminus and purified by a Ni column followed by size exclusion chromatography. A 320 mL column was packed in house using Superdex75 (Amersham Pharmacia, Carlsbad, Calif.) preparation grade resin. Glucose was obtained from Calbiochem (San Diego, Calif.) and other reagents were purchased from Sigma-Aldrich (St. Louis, Mo.).
All assays were performed in a Corning 384-well plate using Spectramax PLUS spectrophotometer (Molecular Devices, Sunnyvale, Calif.) at room temperature. The final assay volume was 40 ∥L. The buffer conditions used in this assay were as follows: 50 mM HEPES, 5 mM glucose, 2.5 mM ATP, 3.5 mM MgCl2, 0.7 mM NADH, 2 mM dithiothreitol, 1 unit/mL pyruvate kinase/lactate dehydrogenase (PK/LDH), 0.2 mM phosphoenolpyruvate, and 25 mM KCl. The buffer pH was 7.1. The test compound in dimethylsulfoxide solution was added to the buffer and mixed by a plate shaker for 7.5 minutes. The final concentration of dimethylsulfoxide introduced into the assay was 0.25%.
Glucokinase was added to the buffer mixture to initiate the reaction in the presence and absence of compound. The reaction was monitored by absorbance at 340 nm due to the depletion of NADH. The initial reaction velocity was measured by the slope of a linear time course of 0-300 seconds. The percentage of maximum activation was calculated by the following equation: % Maximum Activation=(Va/Vo−1)×100; wherein each of Va and Vo is defined as the initial reaction velocity in the presence and absence of the tested compound, respectively.
The glucokinase activities were measured as a function of compound concentrations.

[1] = 5 mM glucose, 2.5 mM ATP, pH 7.1, room temperature, single value or range where N>1, read-out: EC50
[2] = 5 mM glucose, single value or range where N>1

SMILES | EC50 [1] [µM] | Emax [2] [%] | EC50 [µM]
Cc1ccc(NC(=O)[C@H](CC2CCCO2)n2cnc(C(F)(F)F)c2)nc1 (mixture of isomers) [Example 82, (2S)—N-(5-methylpyridin-2-yl)-3-(tetrahydrofuran-2-yl)-2-(4-(trifluoromethyl)-1H-imidazol-1-yl)propanamide] | 5 | 115 | –
Cc1nc(C(F)(F)F)cn1[C@@H](CC1CCCC1)C(=O)Nc1ccc(C(=O)O)cn1 [Example 92, (S)-6-(3-cyclopentyl-2-(2-methyl-4-(trifluoromethyl)-1H-imidazol-1-yl)propanamido)nicotinic acid] | 0.4 to 1.2 | 158 to 168 | –
O=C(O)c1ccc(NC(=O)[C@H](CC2CCCCC2)n2cnc(C(F)(F)F)c2)nc1 [Example 90, (S)-6-(3-cyclohexyl-2-(4-(trifluoromethyl)-1H-imidazol-1-yl)propanamido)nicotinic acid] | 0.2 to 0.3 | 120 to 138 | –
CC(C)S(=O)(=O)c1cn([C@@H](CC2CCCC2)C(=O)Nc2ccn(C)n2)cn1 [Example 29, (S)-3-cyclopentyl-2-(4-(isopropylsulfonyl)-1H-imidazol-1-yl)-N-(1-methyl-1H-pyrazol-3-yl)propanamide] | 17 | 112 | –
Cc1ccc(NC(=O)[C@H](CC2CCCC2)n2ccc(C(F)(F)F)n2)nc1 [Example 69, (S)-3-cyclopentyl-N-(5-methylpyridin-2-yl)-2-(3-(trifluoromethyl)-1H-pyrazol-1-yl)propanamide] | 5.5 | 90 | –
Cc1ccc(NC(=O)[C@H](CC2CCCC2)n2cc(C)c(C(F)(F)F)n2)nc1 [Example 93, (S)-3-cyclopentyl-2-(4-methyl-3-(trifluoromethyl)-1H-pyrazol-1-yl)-N-(5-methylpyridin-2-yl)propanamide] | 4 to 5.4 | 92 to 95 | –
Cc1ccc(NC(=O)[C@H](CC2CCCC2)n2cc(S(C)(=O)=O)cn2)nc1 [Example 8, (S)-3-cyclopentyl-N-(5-methylpyridin-2-yl)-2-(4-(methylsulfonyl)-1H-pyrazol-1-yl)propanamide] | 3.8 | 100 | –
CCn1ncc(NC(=O)[C@H](CC2CCCC2)n2cnc(C(F)(F)F)c2)n1 [Example 49, (S)-3-cyclopentyl-N-(2-ethyl-2H-[1,2,3]triazol-4-yl)-2-(4-trifluoromethyl-1H-imidazol-1-yl)propanamide] | 2.2 | 168 | –
Cn1ccc(NC(=O)[C@H](CC2CCCC2)n2cc(S(C)(=O)=O)cn2)n1 [Example 9, (S)-3-cyclopentyl-N-(1-methyl-1H-pyrazol-3-yl)-2-(4-(methylsulfonyl)-1H-pyrazol-1-yl)propanamide] | 55 | 174 | –
CCS(=O)(=O)c1cnn([C@@H](CC2CCCC2)C(=O)Nc2ccc(C)cn2)c1 [Example 21, (S)-3-cyclopentyl-2-(4-(ethylsulfonyl)-1H-pyrazol-1-yl)-N-(5-methylpyridin-2-yl)propanamide] | 2.9 | 65 | –
O=C(O)Cn1ccc(NC(=O)[C@H](CC2CCCC2)n2cnc(C(F)(F)F)n2)n1 [Example 89, (S)-2-(3-(3-cyclopentyl-2-(3-(trifluoromethyl)-1H-1,2,4-triazol-1-yl)propanamido)-1H-pyrazol-1-yl)acetic acid] | 45 | 183 | –
Cc1cnc(NC(=O)[C@H](CC2CCCC2)n2cnc(S(=O)(=O)C(C)C)c2)cn1 [Example 30, (S)-3-cyclopentyl-2-(4-(isopropylsulfonyl)-1H-imidazol-1-yl)-N-(5-methylpyrazin-2-yl)propanamide] | 10 | 100 | –
Cc1ccc(NC(=O)[C@H](CC2CCCC2)n2cc(C(F)(F)F)c(C)n2)nc1 [Example 96, (S)-3-cyclopentyl-2-(3-methyl-4-(trifluoromethyl)-1H-pyrazol-1-yl)-N-(5-methylpyridin-2-yl)propanamide] | 2.8 | 123 | –
Cc1ccc(NC(=O)[C@H](CC2CCCC2)n2nnc(S(C)(=O)=O)n2)nc1 [Example 80, (S)-3-cyclopentyl-N-(5-methylpyridin-2-yl)-2-(5-(methylsulfonyl)-2H-tetrazol-2-yl)propanamide] | 32 | 86 | –
CC(C)(C(=O)O)c1ccc(NC(=O)[C@H](CC2CCCC2)n2cnc(C(F)(F)F)c2)nc1 [Example 65, (S)-2-(6-(3-cyclopentyl-2-(4-(trifluoromethyl)-1H-imidazol-1-yl)propanamido)pyridin-3-yl)-2-methylpropanoic acid] | 17 | 84 | –
CC(C)S(=O)(=O)c1cnn([C@@H](CC2CCCC2)C(=O)Nc2cnccn2)c1 [Example 2, (S)-3-cyclopentyl-2-(4-(isopropylsulfonyl)-1H-pyrazol-1-yl)-N-(pyrazin-2-yl)propanamide] | 9 to 16.5 | 84 to 90 | –
Cc1ccc(NC(=O)[C@H](Cn2cccn2)n2cnc(C(F)(F)F)c2)nc1 [Example 83, (S)—N-(5-methylpyridin-2-yl)-3-(1H-pyrazol-1-yl)-2-(4-(trifluoromethyl)-1H-imidazol-1-yl)propenamide] | > 100 | – | –
CCOP(=O)(Cc1ccc(NC(=O)[C@H](CC2CCCC2)n2cnc(C(F)(F)F)c2)nc1)OCC [Example 58, (S)-diethyl(6-(3-cyclopentyl-2-(4-(trifluoromethyl)-1H-imidazol-1-yl)propanamido)pyridin-3-yl)methylphosphonate] | – | 129 | 3.4
CCOP(=O)(OCC)c1ccc(NC(=O)[C@H](CC2CCCC2)n2cnc(C(F)(F)F)c2)nc1 [Example 59, (S)-diethyl 6-(3-cyclopentyl-2-(4-(trifluoromethyl)-1H-imidazol-1-yl)propanamido)pyridin-3-ylphosphonate] | – | 81 | 14
Cc1cnc(NC(=O)[C@H](CC2CCCC2)n2cnc(S(C)(=O)=O)c2)cn1 [Example 34, (S)-3-cyclopentyl-N-(5-methylpyrazin-2-yl)-2-(4-(methylsulfonyl)-1H-imidazol-1-yl)propanamide] | 62 | 236 | –
CN(C)C(=O)c1cnn([C@@H](CC2CCCC2)C(=O)Nc2ccn(C)n2)c1 [Example 71, (S)-1-(3-cyclopentyl-1-(1-methyl-1H-pyrazol-3-ylamino)-1-oxopropan-2-yl)-N,N-dimethyl-1H-pyrazole-4-carboxamide] | > 30 | – | –
CCS(=O)(=O)c1cn([C@@H](CC2CCCC2)C(=O)Nc2cnc(C)cn2)cn1 [Example 33, (S)-3-cyclopentyl-2-(4-(ethylsulfonyl)-1H-imidazol-1-yl)-N-(5-methylpyrazin-2-yl)propanamide] | 16 | 136 | –
Cn1ccc(NC(=O)[C@H](CC2CCCC2)n2ccc(C(F)(F)F)n2)n1 [Example 68, (S)-3-cyclopentyl-N-(1-methyl-1H-pyrazol-3-yl)-2-(3-(trifluoromethyl)-1H-pyrazol-1-yl)propanamide] | > 100 | – | –
Cc1ccc(NC(=O)[C@H](CC2CCCC2)n2cc(C(F)(F)F)nc2C)nc1 [Example 91, (S)-3-cyclopentyl-2-(2-methyl-4-(trifluoromethyl)-1H-imidazol-1-yl)-N-(5-methylpyridin-2-yl)propanamide] | 0.4 | 120 | –
Cc1cnc(NC(=O)[C@H](CC2CCOCC2)n2cnc(C(F)(F)F)c2)cn1 [Example 74, (S)—N-(5-methylpyrazin-2-yl)-3-(tetrahydro-2H-pyran-4-yl)-2-(4-(trifluoromethyl)-1H-imidazol-1-yl)propanamide] | 8.7 | 115 | –
CS(=O)(=O)c1cnn([C@@H](CC2CCCC2)C(=O)Nc2ccc(C(=O)O)cn2)c1 [Example 24, (S)-6-(3-cyclopentyl-2-(4-(methylsulfonyl)-1H-pyrazol-1-yl)propanamido)nicotinic acid] | 7 | 145 | –
Cc1ccc(NC(=O)[C@H](CC2CCOCC2)n2cnc(C(F)(F)F)c2)nc1 [Example 75, (S)—N-(5-methylpyridin-2-yl)-3-(tetrahydro-2H-pyran-4-yl)-2-(4-(trifluoromethyl)-1H-imidazol-1-yl)propanamide] | 0.8 to 2 | 51 to 78 | –
